{"source": "paper PMC2668075", "about": "(PLoS ONE, 2009)", "target": "T1, HcDppIVA (Histoplasma ohiense, UniProt A0ACF1AGW9)", "T1 construct": "gene DPP4", "details": "pH and temperature series (optimum pH 8, 42 °C); 1 h", "note": "Peptide text beside a SMILES is read from it. * marks the point of attachment. AMC = Cc1cc(=O)oc2cc(N*)ccc12"}
{"smiles": "Cc1cc(=O)oc2cc(NC(=O)[C@@H]3CCCN3C(=O)CN)ccc12", "note": "[Gly-pro-AMC] (H-Gly-Pro-{AMC})", "values": [{"measurement": "fluorescent AMC release assay", "value": "We measured DppIV activity of the purified preparation towards Gly-pro-AMC"}]}
